Measurements taken from the supplement of paper PMC10307832.

Legend:
Assay in all cases: relative viability (nuclei count vs DMSO), 5 days (fraction); higher = more cells survive
[1] = tested on: ChaGo-K-1
Method in brief: (§1)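 Relative viability was taken as the ratio of nuclei in treated wells to nuclei in vehicle wells. Lung cancer cell lines in 1536-well plates received compounds by pin tool one day after seeding, either one drug alone or a fixed anchor-drug dose plus five library-drug doses (not always all listed) in √10 steps. Nuclei were counted on 4× images after 5 days of treatment, and values are medians of duplicate plates.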

[2] = tested on: EKVX
Method in brief: as §1

[3] = tested on: EMC-BAC-2
Method in brief: as §1

[4] = tested on: EPLC-272H
Method in brief: as §1

[5] = tested on: HCC-78
Method in brief: as §1

[6] = tested on: HCC-827
Method in brief: as §1

[7] = tested on: LCLC-103H
Method in brief: as §1

[8] = tested on: LK-2
Method in brief: as §1

[9] = tested on: LU99A
Method in brief: as §1

[10] = tested on: NCI-H1563
Method in brief: as §1

[11] = tested on: NCI-H1666
Method in brief: as §1

[12] = tested on: NCI-H1975
Method in brief: as §1

[13] = tested on: NCI-H2126
Method in brief: as §1

[14] = tested on: NCI-H2342
Method in brief: as §1

[15] = tested on: NCI-H23
Method in brief: as §1

[16] = tested on: NCI-H2405
Method in brief: as §1

[17] = tested on: NCI-H322M
Method in brief: as §1

[18] = tested on: PC-14
Method in brief: as §1

[19] = tested on: RERF-LC-KJ
Method in brief: as §1

[20] = tested on: SK-LU-1
Method in brief: as §1

[21] = tested on: SW 1573
Method in brief: as §1

[22] = tested on: SW 900
Method in brief: as §1

What does the source list for CC(=O)O[C@@]12CO[C@@H]1C[C@H](O)[C@@]1(C)C(=O)[C@H](O)C3=C(C)[C@@H](OC(=O)[C@H](O)[C@@H](NC(=O)OC(C)(C)C)c4ccccc4)C[C@@](O)([C@@H](OC(=O)c4ccccc4)[C@H]21)C3(C)C [Docetaxel] + COc1cc2c(Oc3ccc(NC(=O)C4(C(=O)Nc5ccc(F)cc5)CC4)cc3F)ccnc2cc1OCCCN1CCOCC1 [Foretinib] (partner 0.25 µM)?
relative viability ([1]; first compound 0.0002 µM): 0.89; relative viability ([1]; first compound 0.000632 µM): 0.824; relative viability ([1]; first compound 0.002 µM): 0.439; relative viability ([1]; first compound 0.006325 µM): 0.329; relative viability ([1]; first compound 0.02 µM): 0.174; relative viability ([2]; first compound 0.0002 µM): 1.07; relative viability ([2]; first compound 0.000632 µM): 0.887; relative viability ([2]; first compound 0.002 µM): 0.411; relative viability ([2]; first compound 0.006325 µM): 0.234; relative viability ([2]; first compound 0.02 µM): 0.13; relative viability ([3]; first compound 0.0002 µM): 1.02; relative viability ([3]; first compound 0.000632 µM): 0.948; relative viability ([3]; first compound 0.002 µM): 0.36; relative viability ([3]; first compound 0.006325 µM): 0.348; relative viability ([3]; first compound 0.02 µM): 0.205; relative viability ([4]; first compound 0.0002 µM): 0.7; relative viability ([4]; first compound 0.000632 µM): 0.278; relative viability ([4]; first compound 0.002 µM): 0.249; relative viability ([4]; first compound 0.006325 µM): 0.0711; relative viability ([4]; first compound 0.02 µM): 0.0667; relative viability ([5]; first compound 0.0002 µM): 0.634; relative viability ([5]; first compound 0.000632 µM): 0.493; relative viability ([5]; first compound 0.002 µM): 0.461; relative viability ([5]; first compound 0.006325 µM): 0.42; relative viability ([5]; first compound 0.02 µM): 0.34; relative viability ([6]; first compound 0.0002 µM): 1.03; relative viability ([6]; first compound 0.000632 µM): 1; relative viability ([6]; first compound 0.002 µM): 0.771; relative viability ([6]; first compound 0.006325 µM): 0.362; relative viability ([6]; first compound 0.02 µM): 0.291; relative viability ([7]; first compound 0.0002 µM): 0.674; relative viability ([7]; first compound 0.000632 µM): 0.61; relative viability ([7]; first compound 0.002 µM): 0.485; relative viability ([7]; first compound 0.006325 µM): 0.339; relative viability ([7]; first compound 0.02 µM): 0.272; relative viability ([8]; first compound 0.0002 µM): 1.02; relative viability ([8]; first compound 0.000632 µM): 0.948; relative viability ([8]; first compound 0.002 µM): 0.348; relative viability ([8]; first compound 0.006325 µM): 0.188; relative viability ([8]; first compound 0.02 µM): 0.14; relative viability ([9]; first compound 0.0002 µM): 0.718; relative viability ([9]; first compound 0.000632 µM): 0.794; relative viability ([9]; first compound 0.002 µM): 0.486; relative viability ([9]; first compound 0.006325 µM): 0.393; relative viability ([9]; first compound 0.02 µM): 0.259; relative viability ([10]; first compound 0.0002 µM): 0.988; relative viability ([10]; first compound 0.000632 µM): 0.862; relative viability ([10]; first compound 0.002 µM): 0.966; relative viability ([10]; first compound 0.006325 µM): 0.922; relative viability ([10]; first compound 0.02 µM): 0.628; relative viability ([11]; first compound 0.0002 µM): 0.853; relative viability ([11]; first compound 0.000632 µM): 0.628; relative viability ([11]; first compound 0.002 µM): 0.633; relative viability ([11]; first compound 0.006325 µM): 0.614; relative viability ([11]; first compound 0.02 µM): 0.372; relative viability ([12]; first compound 0.0002 µM): 0.907; relative viability ([12]; first compound 0.000632 µM): 0.586; relative viability ([12]; first compound 0.002 µM): 0.353; relative viability ([12]; first compound 0.02 µM): 0.105; relative viability ([13]; first compound 0.0002 µM): 1.08; relative viability ([13]; first compound 0.000632 µM): 1.14; relative viability ([13]; first compound 0.002 µM): 0.588; relative viability ([13]; first compound 0.006325 µM): 0.456; relative viability ([13]; first compound 0.02 µM): 0.228; relative viability ([14]; first compound 0.0002 µM): 1.17; relative viability ([14]; first compound 0.000632 µM): 0.948; relative viability ([14]; first compound 0.002 µM): 0.638; relative viability ([14]; first compound 0.006325 µM): 0.661; relative viability ([14]; first compound 0.02 µM): 0.502; relative viability ([15]; first compound 0.0002 µM): 0.964; relative viability ([15]; first compound 0.000632 µM): 0.859; relative viability ([15]; first compound 0.002 µM): 0.705; relative viability ([15]; first compound 0.006325 µM): 0.188; relative viability ([15]; first compound 0.02 µM): 0.147; relative viability ([16]; first compound 0.0002 µM): 1.05; relative viability ([16]; first compound 0.000632 µM): 1; relative viability ([16]; first compound 0.002 µM): 0.6; relative viability ([16]; first compound 0.006325 µM): 0.402; relative viability ([16]; first compound 0.02 µM): 0.306; relative viability ([17]; first compound 0.0002 µM): 0.928; relative viability ([17]; first compound 0.000632 µM): 0.949; relative viability ([17]; first compound 0.002 µM): 0.956; relative viability ([17]; first compound 0.006325 µM): 0.702; relative viability ([17]; first compound 0.02 µM): 0.463; relative viability ([18]; first compound 0.0002 µM): 0.886; relative viability ([18]; first compound 0.000632 µM): 1.03; relative viability ([18]; first compound 0.002 µM): 0.576; relative viability ([18]; first compound 0.006325 µM): 0.117; relative viability ([18]; first compound 0.02 µM): 0.0977; relative viability ([19]; first compound 0.0002 µM): 0.882; relative viability ([19]; first compound 0.000632 µM): 0.898; relative viability ([19]; first compound 0.002 µM): 0.402; relative viability ([19]; first compound 0.006325 µM): 0.2; relative viability ([19]; first compound 0.02 µM): 0.203; relative viability ([20]; first compound 0.0002 µM): 0.737; relative viability ([20]; first compound 0.000632 µM): 0.459; relative viability ([20]; first compound 0.002 µM): 0.451; relative viability ([20]; first compound 0.006325 µM): 0.275; relative viability ([20]; first compound 0.02 µM): 0.196; relative viability ([21]; first compound 0.0002 µM): 0.719; relative viability ([21]; first compound 0.000632 µM): 1.06; relative viability ([21]; first compound 0.002 µM): 0.342; relative viability ([21]; first compound 0.006325 µM): 0.193; relative viability ([21]; first compound 0.02 µM): 0.2; relative viability ([22]; first compound 0.0002 µM): 0.816; relative viability ([22]; first compound 0.000632 µM): 0.407; relative viability ([22]; first compound 0.002 µM): 0.249; relative viability ([22]; first compound 0.006325 µM): 0.247; relative viability ([22]; first compound 0.02 µM): 0.175
